# No end group written: not given here.
# Tests used:
# [1] = test system: S. aureus; type: cell-based, Staphylococcus aureus strain 111; settings: positive control, 3 μM LL-37
# Description: (§1) Viable count assay Bacteria were grown to mid-logarithmic phase (OD620≈ 0.4) in THB-medium at 37° C. with 5% CO2. The bacterial solution was subsequently washed and adjusted to 2×10^9 cfu/ml in 10 mM Tris, pH 7.4, containing 5 mM glucose. S. pyogenes, S. aureus, E. coli or P. aeruginosa were then incubated with 2 μM of purified collagen type VI at 37° C. for 2 h. In some experiments S. pyogenes was incubated with recombinant collagen type VI fragments at various concentrations (0.125, 0.25, 0.5, 1.0 and 2.0 μM) for 2 h at 37° C. Bacteria incubated with Tris-HCl pH 7.4 buffer or 3 μM LL-37 (Innovagen, Lund, Sweden) were used as negative and positive controls respectively. To quantify the bactericidal activity, serial dilutions of the incubation mixtures were plated on blood agar plates, followed by incubation at 37° C. overnight, and the number of colony forming units (cfu) were determined. Hundred percent survival was defined as total survival of bacteria in the same buffer and under the same condition in the absence of collagen type VI or recombinant proteins.
# [2] = test system: S. pyogenes; type: cell-based, Streptococcus pyogenes strain AP1; settings: positive control, 3 μM LL-37
# Description: as §1
# [3] = test system: E. coli; type: cell-based, Escherichia coli strain 1351; settings: positive control, 3 μM LL-37
# Description: as §1
# [4] = test system: P. aeruginosa; type: cell-based, Pseudomonas aeruginosa PAO1; settings: positive control, 3 μM LL-37
# Description: as §1
# [5] = Membrane permeabilization assay (carboxyfluorescein efflux from liposomes); settings: 10 mM Tris pH 7.4, 37° C., 45 min
# Description: Dry lipid films of E. coli polar lipid extract were formed in round-bottom flask walls by dissolving lipids in chloroform, followed by evaporation under N2-flow and subsequently placed in vacuum overnight. Lipid films were re-suspended either by 30 min stirring (E. coli), at 55° C. in an aqueous solution of 100 mM 5(6)-carboxyfluorescein in 10 mM Tris (set to pH 7.4 at 37° C.). Suspensions were then vortexed followed by repeated extrusion through a 100 nm polycarbonate membrane mounted in a LipoFast mini-extruder (Avanti Polar Lipids) in order to reduce multilamellar structures and polydispersity. Un-trapped carboxyfluorescein was removed by gel filtration on Sephadex PD-10 columns (GE Healthcare, Little Chalfont, UK). Membrane permeability was measured by monitoring carboxyfluorescein efflux from the liposomes to the external low concentration environment, resulting in loss of self-quenching and an increased fluorescence signal with excitation and emission wavelengths of 492 and 517 nm, respectively. Fluorescence was measured with a Varioskan Flash Multimode Reader (Thermo Fisher Scientific, Waltham, MA) in black Nunc Delta Surface 96-well plate (Thermo Fisher Scientific, Roskilde, DK). […] The effects of each peptide concentration on the liposome systems were monitored for 45 min, at which point the initial leakage had largely subsided. […]
# [6] = test system: S. pyogenes, S. aureus, E. coli and P. aeruginosa; assay: Bactericidal assay (viable count), statements on the whole panel; type: cell-based; settings: salt conditions (150 mM NaCl, pH 7.4)
# Description: Bacteria were grown to mid-logarithmic phase (OD620≈0.4) in THB medium at 37° C., with 5% CO2. The bacterial solution was subsequently washed and adjusted to 2×10^7 cfu/ml in salt buffer (10 mM Tris-HCl, 150 mM NaCl supplemented with 5 mM glucose; pH 7.4) (both from Sigma-Aldrich). Various concentrations of peptides (0.3, 0.6, 3, 6, 30 and 60 μM) were incubated with bacteria in salt buffer with or without 20% human plasma. Bacteria incubated in only salt buffer with or without plasma were used as negative controls. Samples with LL-37 served as positive controls. The samples were incubated for 2 h at 37° C. with 5% CO2. To quantify the bactericidal activity, serial dilutions of the incubation mixtures were plated on THB agar plates, followed by incubation at 37° C. with 5% CO2 overnight, and the number of cfu were determined. Experiments were performed in triplicate. Hundred percent survival was defined as total survival of bacteria in the same buffer and under the same condition in the absence of peptides.
# [7] = test system: P. aeruginosa 15159; assay: Invasive P. aeruginosa infection model, survival; type: in vivo, Female BALB/c mice
# Description: Animal experiments were performed according to a protocol approved by the Local Ethics Committee at Lund University. Animals were housed under standard conditions of light and temperature and had free access to standard laboratory chow and water. P. aeruginosa 15159 bacteria were grown to mid-exponential phase (A620˜0.5), washed and diluted in PBS to 2×10^8 cfu/ml, and kept on ice until injection. Female BALB/c mice, 8 weeks old, were anesthetized with isoflurane and injected intraperitoneally with 100 μL of the bacterial solution, followed by injection of 100 μL SFV33 or GVR28 peptide (1 mg/mL) after 15 minutes, or with 100 μL PBS alone (control group).
# [8] = test system: RAW 264.7 macrophage cells; assay: LPS stimulation of macrophages in vitro (nitrite, Griess reagent); type: cell-based, murine; settings: LPS 10 ng/ml pre-incubated with peptide, 24 h
# Description: Murine macrophage-like cells (RAW 264.7; ATCC) were seeded in 96-well plates at 3.5×10^5 cells/well in DMEM (without phenol red, PAA Laboratories) supplemented with 10% fetal calf serum and antibiotic-antimycotic (Invitrogen, Carlsbad, CA). After overnight incubation at 37° C., the cells were washed once with DMEM. LPS (10 ng/ml) was pre-incubated with the peptides for 20 min at room temperature and added to the cells. The cells were subsequently incubated for 24 h at 37° C. Griess reagent (Sigma, St. Louis, MO) was added to culture supernatant in 1:1 ratio followed by 15 min incubation in dark. The absorbance was then measured at 550 nm with a spectrophotometer. The cells with and without LPS stimulation were taken as positive and negative controls for LPS-induction. For the determination of NO production with peptides and LPS treatments, the assay was done in triplicate and the average values were considered for each set. Cells were grown at 37° C. and with 5% CO2 in fully humidified air.
# [9] = test system: human monocytic THP-1 cells; assay: Lactate dehydrogenase (LDH) assay; type: cell-based; settings: at 50 μM
# Description: The cytotoxicity experiments were performed as described previously (41). Briefly, human monocytic THP-1 cells (American Type Culture Collection (ATCC), Manassas, VA) were cultured into 96-well plates using Dulbecco's Modified Eagle's medium (DMEM) (PAA Laboratories) supplemented with 10% fetal calf serum. The medium was removed and the cells were subsequently washed with DMEM. Peptides (1, 5, 10, 20, 50 μM) diluted in DMEM were added in triplicates. The LDH based TOX-7 kit (Sigma-Aldrich) was used according to the manufacturer instructions. The amount of LDH release from dead cells was measured at 450 nm. As a positive control 2% Triton X-100 was used.
compound,measurement,setting,value
CC[C@H](C)[C@H](NC(=O)[C@H](CCCCN)NC(=O)[C@H](CCC(=O)O)NC(=O)[C@H](CCCCN)NC(=O)[C@H](CO)NC(=O)[C@H](CCCCN)NC(=O)[C@H](CCCNC(=N)N)NC(=O)[C@H](Cc1ccccc1)NC(=O)[C@H](Cc1ccccc1)NC(=O)[C@H](CC(=O)O)NC(=O)CNC(=O)[C@H](CC(C)C)NC(=O)[C@@H](N)CC(C)C)C(=O)NCC(=O)N[C@@H](CCCCN)C(=O)N[C@@H](CCC(=O)O)C(=O)N[C@@H](Cc1ccccc1)C(=O)N[C@@H](CCCCN)C(=O)N[C@@H](CCCNC(=N)N)C(=O)N[C@H](C(=O)N[C@H](C(=O)N[C@@H](CCC(N)=O)C(=O)N[C@@H](CCCNC(=N)N)C(=O)N[C@H](C(=O)N[C@@H](CCCCN)C(=O)N[C@@H](CC(=O)O)C(=O)N[C@@H](Cc1ccccc1)C(=O)N[C@@H](CC(C)C)C(=O)N[C@@H](CCCNC(=N)N)C(=O)N[C@@H](CC(N)=O)C(=O)N[C@@H](CC(C)C)C(=O)N[C@H](C(=O)N1CCC[C@H]1C(=O)N[C@@H](CCCNC(=N)N)C(=O)N[C@H](C(=O)N[C@@H](CCC(=O)O)C(=O)N[C@@H](CO)C(=O)O)[C@@H](C)O)C(C)C)[C@@H](C)CC)C(C)C)[C@@H](C)CC [LL-37],killing,[1],~100%
same,killing,[2],~100%
same,killing,[3],~100%
same,killing,[4],~100%
FYLKTYRSQAPVLDAIRRLRLRGGS (FYL25 peptide) [peptide derived from VWA domain of collagen type VI α3-chain],membrane leakage (release of carboxyfluorescein),[5],highest membrane leakage
GVRPDGFAHIRDFVSRIVRRLNIGPSKV (GVR28 peptide) [peptide derived from VWA domain of collagen type VI α3-chain],antibacterial activity (viable count),[6],somewhat reduced effects
same,survival compared with PBS group,[7]; experiment terminated after 29 hours,prolonged survival
same,time at which 50% mortalities were observed,"[7]; mice infected i.p., single dose 100 μL peptide (1 mg/mL) 15 minutes after infection",24 h
same,LPS-induction of nitrite,[8],significantly suppressed the LPS-induction of nitrite
SFVARNTFKRVRNGFLMRKVAVFFSNTPTRASP [SFV33],toxicity towards monocytes (LDH release),[9],exhibited toxicity

# Source: US12134640B2, “Polypeptides and medical uses thereof” (priority 2016, dated 2024)
